# Laboratory results reported in patent US9675712B2, “pH sensitive fluorescent polydiacetylene liposome and delivery vehicle comprising same” (priority 2012, dated 2017).
# Test system: E. coli 0-157(ATCC 43894)
# Assay: Anti-bacterial analysis of drug release in vitro (plaque / growth inhibition area on agar plate)
# Type: cell-based
# Conditions: dish (c): standard solution in PBS; 20 μl, 37° C. overnight
# Description: In order to prepare an LB broth and an agar medium, 12.5 g of the LB broth and 7.5 g of the plant agar were transferred to 1 L sterile flask. The components were dissolved in 500 mL of distilled water or deionized water, and flask was tightly covered with an aluminum foil, a plug or a cap similar thereto. The mixture was heated until a boiling point was reached to dissolve the agar, and sterilized by autoclave at 121-124° C. for 15 mins, and then waited until the autoclave was cooled and a pressure was 0. The medium was removed from the autoclave and cooled to room temperature. When the LB agar was cooled to a temperature (approximately 45° C.) which is still considered hot by touch, 0.5 cm or ¼ layer of agar was poured into the Petri dish. It corresponds to approximately 20 to 25 mL volumes of the agar. The Petri dish was positioned on a flat surface until the agar was completely solidified for 30 to 40 mins. The Petri dish containing the solid agar was stored at 4° C.
# 300 μl of bacteria (E. coli) was added to 3.0 mL of the LB broth, and the culture fluid was strongly shaken. Then, the culture fluid was cultured in an incubator shaking the bacteria at 37° C. overnight. […]
# First, a growth inhibition area (plaque) will be shown in the fusible bacterial habitat in the case in which the drug is smoothly released from the liposome. […] Third, the analysis method needs to be quantitative.
smiles,measurement,value
"CC1(C)S[C@@H]2[C@H](NC(=O)[C@H](N)c3ccccc3)C(=O)N2[C@H]1C(=O)O [ampicillin standard solution, ampicillin]",growth inhibition area,growth inhibition area was generally observed
